Here are results for one compound from paper PMC12667553, “TWF2 Drives Tumor Progression and Sunitinib Resistance in Renal Cell Carcinoma through Hippo Signaling Suppression” (Advanced Science, 2025).

Structures are written as SMILES. Positions count from the first letter of the chain named.

Assay [1] concerns the target T1, TWF2 (Twinfilin actin-binding protein; Flag-TWF2) (Homo sapiens, UniProt Q6IBS0).
T1 construct: Flag-tagged TWF2 overexpressed in 293F cells, purified with anti-Flag magnetic beads
T1 sequence (Q6IBS0 2-349): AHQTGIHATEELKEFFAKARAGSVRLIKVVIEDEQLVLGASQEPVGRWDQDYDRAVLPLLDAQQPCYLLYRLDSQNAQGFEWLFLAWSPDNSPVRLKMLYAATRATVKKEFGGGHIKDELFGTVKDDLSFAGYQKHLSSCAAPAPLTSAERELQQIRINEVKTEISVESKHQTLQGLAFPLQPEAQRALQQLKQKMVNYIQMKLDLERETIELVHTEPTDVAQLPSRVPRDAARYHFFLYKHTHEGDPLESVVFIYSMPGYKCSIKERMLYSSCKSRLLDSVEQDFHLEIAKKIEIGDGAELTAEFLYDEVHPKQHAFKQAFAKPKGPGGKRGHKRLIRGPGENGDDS
Put plainly: isothermal titration calorimetry. As to conditions: 25 °C; 20 mM HEPES pH 7.5, 300 mM NaCl, 2 mM MgCl2; 1 mM Sal E titrated into 100 µM TWF2; single-site model. The text has this:
isothermal titration calorimetry on TWF2 (Twinfilin actin-binding protein; Flag-TWF2) | direct binding affinity between Sal E and purified TWF2, with a dissociation constant (K d)

For assay [2], the target named is T2, TWF2 (Twinfilin actin-binding protein; Flag-TWF2) (Homo sapiens, UniProt Q6IBS0, M99A).
T2 construct: Flag-tagged TWF2 overexpressed in 293F cells, purified with anti-Flag magnetic beads
T2 sequence (Q6IBS0 2-349 M99A): T1 sequence (Q6IBS0 2-349) with M98A
The assay can be described thus: isothermal titration calorimetry. As to conditions: 25 °C; 20 mM HEPES pH 7.5, 300 mM NaCl, 2 mM MgCl2; 1 mM Sal E titrated into 100 µM TWF2; single-site model.

`O=C(/C=C/c1ccc(O)c(O)c1/C(=C\c1ccc(O)c(O)c1)C(=O)O[C@H](Cc1ccc(O)c(O)c1)C(=O)O)O[C@H](Cc1ccc(O)c(O)c1)C(=O)O` [Salvianolic acid E] gave a Kd in assay [1] of 16.7 µM. For the same compound, the “loss of Sal E binding” value in assay [2] is recorded as “showing loss of Sal E binding upon M99 mutation in TWF2”.
